Test systems include CCRF-CEM leukemia; HOP-92 NSCLC; HT29 colon; OVCAR-8 ovarian; U251 CNS; UACC-62 melanoma; MALME-3M melanoma; RPMI-8226 leukemia.
Common to all, as to test: growth of human tumour cells (NCI), 48 h

Where “and” joins values, the source holds several entries; their conditions need not be identical. Equal values may be shown once.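 These data come from cells grown in 96-well plates and exposed to compound for 48 hours at five concentrations. GI50: concentration for 50% inhibition of growth. TGI: total growth inhibition.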 Bounds are passed on as bounds.

Consider `COc1ccc(C2c3cc4c(c(OC)c3CC3OCC(=O)C32)OCO4)cc1OC` (stereo not given), for which the GI50 in the test with CCRF-CEM leukemia, in the test with OVCAR-8 ovarian, with U251 CNS and in the test on UACC-62 melanoma was under 10 nM each time. Besides, the TGI with CCRF-CEM leukemia was under 0.01 µM; in the test on HOP-92 NSCLC, over 100 µM; in the test with HT29 colon, 0.104 µM; in the test on OVCAR-8 ovarian, 46.9 µM; in the test with U251 CNS it was over 100 µM; in the test on UACC-62 melanoma, over 100 µM.

For the compound `C/C(=C\CCc1ccsc1)CC/C=C(\C)CCCN1CCN(CCO)CC1`, the GI50 was 2280 nM with CCRF-CEM leukemia; 1730 nM in the test with HOP-92 NSCLC; 2040 nM with HT29 colon; 1870 nM with MALME-3M melanoma; 4840 nM in the test with OVCAR-8 ovarian; 1920 nM in the test with RPMI-8226 leukemia. Further, the GI50 was 2270 nM in the test on U251 CNS and 1730 nM with UACC-62 melanoma. Also, the TGI with CCRF-CEM leukemia was 6.51 µM; in the test on HOP-92 NSCLC it was 7.48 µM; in the test on HT29 colon, 5.01 µM; in the test with MALME-3M melanoma it was 3.73 µM; in the test on OVCAR-8 ovarian, 18.4 µM; in the test on RPMI-8226 leukemia, 4.57 µM. Also, the TGI in the test with U251 CNS is 7.28 µM; with UACC-62 melanoma, 3.75 µM.

`Cc1ccc(C2NC(=S)N3C(c4ccc(C)cc4)NC(=S)N23)cc1` (stereo not given): the GI50 was 2460 nM in the test on CCRF-CEM leukemia; 2580 nM with HT29 colon; 12400 nM in the test on MALME-3M melanoma; 7360 nM with OVCAR-8 ovarian; 3910 nM in the test with U251 CNS; 1880 nM with UACC-62 melanoma. Further, the TGI stood at 10.2 µM in the test on CCRF-CEM leukemia; 10.2 µM in the test on HT29 colon; 28.1 µM in the test with MALME-3M melanoma; 25.1 µM with OVCAR-8 ovarian; 14.3 µM in the test with U251 CNS; 11.7 µM with UACC-62 melanoma.

Consider `Cc1ccc(-n2nnc3c(sc4ccccc43)c2=O)cc1`, for which the GI50 in the test with HOP-92 NSCLC was 1540 nM; in the test with HT29 colon, 3590 nM; in the test with MALME-3M melanoma, 8400 nM; in the test with OVCAR-8 ovarian it was 6100 nM; in the test on RPMI-8226 leukemia, 24000 nM; in the test on U251 CNS, 3380 nM. For the same compound, the GI50 with UACC-62 melanoma is 51700 nM. The TGI in the test with HOP-92 NSCLC was 6.82 µM; in the test with HT29 colon, over 100 µM; in the test on MALME-3M melanoma, over 100 µM; in the test with OVCAR-8 ovarian, over 100 µM; in the test on RPMI-8226 leukemia, over 100 µM; in the test with U251 CNS, 19 µM. Also, the TGI with UACC-62 melanoma is over 100 µM.

As for `Cc1cc(C(=O)N2CCN(C)CC2)c2c(=O)n(-c3ccccc3)c(=O)n(CC(O)CN3CCN(c4ncccn4)CC3)c2n1` (stereo not given), the GI50 with HOP-92 NSCLC, in the test with HT29 colon, in the test with MALME-3M melanoma, in the test on RPMI-8226 leukemia, with U251 CNS and with UACC-62 melanoma was over 100000 nM throughout. The TGI in the test on HOP-92 NSCLC, in the test on HT29 colon, in the test with MALME-3M melanoma, in the test on RPMI-8226 leukemia, with U251 CNS and in the test on UACC-62 melanoma was over 100 µM in each case.

Consider `O=C(NC1CCNCC1)c1[nH]ncc1NC(=O)c1c(Cl)cccc1Cl`, for which the GI50 in the test on CCRF-CEM leukemia was 331 nM and 335 nM; with HOP-92 NSCLC, 323 nM and 222 nM; in the test with HT29 colon it was 398 nM and 406 nM; with MALME-3M melanoma, 325 nM and 257 nM; in the test on OVCAR-8 ovarian, 659 nM and 660 nM; in the test on RPMI-8226 leukemia, 329 nM and 313 nM. Moreover, the GI50 is 328 nM and 329 nM with U251 CNS; 1330 nM and 479 nM with UACC-62 melanoma. In addition, the TGI in the test on CCRF-CEM leukemia is over 100 µM; with HOP-92 NSCLC, 0.671 µM; in the test with HT29 colon, 6.29 µM and > 10 µM; with MALME-3M melanoma, 1.68 µM and 1.03 µM; in the test with OVCAR-8 ovarian, over 100 µM; with RPMI-8226 leukemia, 0.999 µM and > 2.62 µM. The TGI with U251 CNS is over 59.7 µM; in the test with UACC-62 melanoma, 3.18 µM and 1.89 µM.

For `COc1cc2c(cc1OCc1ccccc1)N=C[C@@H]1C[C@@H](F)CN1C2=O`, the GI50 in the test with CCRF-CEM leukemia was 355 nM; in the test on HT29 colon it was 322 nM; in the test on MALME-3M melanoma, 1580 nM; with OVCAR-8 ovarian, 565 nM; with RPMI-8226 leukemia it was under 50.1 nM; with U251 CNS it was 154 nM. Further, the GI50 in the test with UACC-62 melanoma is 183 nM. Further, the TGI in the test on CCRF-CEM leukemia was 1.59 µM; in the test on HT29 colon, over 42.8 µM; in the test on MALME-3M melanoma, 3.13 µM; with OVCAR-8 ovarian, 5.89 µM; in the test on U251 CNS, 0.4 µM; in the test with UACC-62 melanoma, 0.369 µM.

As to `O=C(N/N=C/c1ccncc1)c1ccc(C(F)(F)F)nc1Nc1cccc(C(F)(F)F)c1`, the GI50 is 3430 nM in the test on HT29 colon; 2000 nM with MALME-3M melanoma; 2390 nM in the test with OVCAR-8 ovarian; 514 nM in the test with RPMI-8226 leukemia; 2470 nM in the test on U251 CNS; 2570 nM in the test with UACC-62 melanoma. Besides, the TGI in the test on HT29 colon amounted to 11 µM; in the test on MALME-3M melanoma, 6.99 µM; with OVCAR-8 ovarian, 10.4 µM; with RPMI-8226 leukemia, 4.05 µM; with U251 CNS, 11.4 µM; in the test on UACC-62 melanoma it was 8.54 µM.

The values above are taken from PubChem BioAssay (NCI).
